Assay [1] has as its target Eukaryotic translation initiation factor 4H (Homo sapiens, UniProt Q15056). The assay can be described thus: eIF4H binding inhibition – biochemical, uHTS, fluorescence polarization, translation initiation inhibitor project, primary screen (AID 2012). Background: Polarisation of emitted light reports the rotation of a fluorescent probe.
Assay [2] has as its system BJ. The assay can be described thus: BJ-TERT fibroblast viability loss – cell-based, RAS-independent, luminescence, dose response (AID 1933). Particulars: Homo sapiens. In kind it is functional.
Assay [3] deals with BJ. As to the kind of experiment: cells. Particulars: Homo sapiens. In kind it is functional, cell-based.
Another assay deals with Estrogen receptor (Homo sapiens, UniProt P03372).
Sequence of Estrogen receptor (P03372 whole entry): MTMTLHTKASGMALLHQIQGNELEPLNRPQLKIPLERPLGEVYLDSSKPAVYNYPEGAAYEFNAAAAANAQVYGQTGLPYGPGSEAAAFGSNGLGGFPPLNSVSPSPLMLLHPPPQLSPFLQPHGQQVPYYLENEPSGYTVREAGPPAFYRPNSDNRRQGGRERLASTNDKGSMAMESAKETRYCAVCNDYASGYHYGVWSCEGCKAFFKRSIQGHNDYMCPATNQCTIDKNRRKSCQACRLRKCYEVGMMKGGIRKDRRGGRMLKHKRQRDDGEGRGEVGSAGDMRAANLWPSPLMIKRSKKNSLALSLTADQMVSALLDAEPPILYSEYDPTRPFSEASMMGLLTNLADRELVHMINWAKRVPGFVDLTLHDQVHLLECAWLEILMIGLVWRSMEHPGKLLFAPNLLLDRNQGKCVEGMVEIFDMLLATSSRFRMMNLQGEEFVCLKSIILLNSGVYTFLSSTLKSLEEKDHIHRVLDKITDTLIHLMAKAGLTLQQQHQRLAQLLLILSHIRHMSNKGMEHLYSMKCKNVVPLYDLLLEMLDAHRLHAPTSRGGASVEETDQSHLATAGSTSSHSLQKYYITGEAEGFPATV
The target of a further assay is Estrogen receptor beta (Homo sapiens, UniProt Q92731).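 Also: recombinant ER-beta bound to coactivator SRC1 peptide in presence of estradiol agonist; inhibitors block coactivator peptide binding and lower the FRET signal.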
For assay [4], the system named is BJ. The assay can be described thus: BJ-TERT-LT-ST fibroblast viability loss – cell-based, RAS-independent, luminescence, dose response (AID 1935).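 Also: BJ fibroblasts immortalized with TERT plus LT and ST oncogenes.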 The assay is classed as functional. Particulars: Homo sapiens.
The nature of assay [5]: DRD fibroblast viability loss – cell-based, non-viral oncogenic, luminescence, dose response (AID 1934). In kind it is functional. Particulars: Homo sapiens.
Assay [6] concerns the target Polyadenylate-binding protein 1 (Homo sapiens, UniProt P11940). As to the kind of experiment: blockers of PABP interaction with poly(A) – biochemical, fluorescence polarization, […] (AID 2014).
Assay [7] is described as follows: HEK-293T viability loss after treatment – luminescence, T-cell screen hits, cytotoxicity control for TCR NF-kB inhibitor project, dose response (AID 489026).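 Also: cells exposed to compound about 14 hours before the viability readout.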 In kind it is functional, cell-based.
The target of assay [8] is T1, Delta-type opioid receptor (Homo sapiens, UniProt P41143). The assay can be described thus: HTS Image-Based Screen for Antagonists of the DOR Receptor. [Related pubchem assays (depositor defined):AID1777, AID1785, AID1786, AID2133]. In kind it is functional.
T1 sequence (P41143 whole entry): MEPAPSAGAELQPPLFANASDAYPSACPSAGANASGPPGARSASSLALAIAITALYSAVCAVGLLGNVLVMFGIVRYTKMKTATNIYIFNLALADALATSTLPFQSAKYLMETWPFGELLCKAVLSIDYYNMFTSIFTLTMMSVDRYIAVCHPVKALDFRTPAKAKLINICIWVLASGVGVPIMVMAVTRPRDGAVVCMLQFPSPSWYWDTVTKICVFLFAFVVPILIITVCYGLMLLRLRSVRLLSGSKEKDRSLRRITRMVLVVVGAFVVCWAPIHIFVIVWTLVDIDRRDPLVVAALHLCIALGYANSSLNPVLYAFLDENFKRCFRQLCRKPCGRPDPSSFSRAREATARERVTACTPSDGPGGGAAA
In assay [9] the target is T2, Mu-type opioid receptor (Homo sapiens, UniProt P35372). The assay can be described thus: HTS Image-Based Screen for Agonists of the MOR Receptor. [Related pubchem assays (depositor defined):AID1777, AID1785, AID1786, AID2133]. The assay is classed as functional.
T2 sequence (P35372 whole entry): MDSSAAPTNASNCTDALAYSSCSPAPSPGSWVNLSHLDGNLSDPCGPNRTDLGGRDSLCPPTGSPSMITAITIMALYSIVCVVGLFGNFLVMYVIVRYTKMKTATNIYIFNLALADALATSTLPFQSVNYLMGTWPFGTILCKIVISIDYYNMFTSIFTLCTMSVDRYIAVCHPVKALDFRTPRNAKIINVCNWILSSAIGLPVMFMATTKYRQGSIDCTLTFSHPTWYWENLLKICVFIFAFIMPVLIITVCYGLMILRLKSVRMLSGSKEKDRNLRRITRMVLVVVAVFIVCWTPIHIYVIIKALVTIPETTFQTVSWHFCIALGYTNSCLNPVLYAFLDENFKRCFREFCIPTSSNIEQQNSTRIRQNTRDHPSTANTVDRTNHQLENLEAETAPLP
Assay [10] concerns the target T1, Delta-type opioid receptor. The assay can be described thus: HTS Image-Based Screen for Agonists of the DOR Receptor. [Related pubchem assays (depositor defined):AID1777, AID1786, AID2133]. The assay is classed as functional.
For assay [11], the target named is T3, Kappa-type opioid receptor (Homo sapiens, UniProt P41145). The assay is classed as functional.
T3 sequence (P41145 whole entry): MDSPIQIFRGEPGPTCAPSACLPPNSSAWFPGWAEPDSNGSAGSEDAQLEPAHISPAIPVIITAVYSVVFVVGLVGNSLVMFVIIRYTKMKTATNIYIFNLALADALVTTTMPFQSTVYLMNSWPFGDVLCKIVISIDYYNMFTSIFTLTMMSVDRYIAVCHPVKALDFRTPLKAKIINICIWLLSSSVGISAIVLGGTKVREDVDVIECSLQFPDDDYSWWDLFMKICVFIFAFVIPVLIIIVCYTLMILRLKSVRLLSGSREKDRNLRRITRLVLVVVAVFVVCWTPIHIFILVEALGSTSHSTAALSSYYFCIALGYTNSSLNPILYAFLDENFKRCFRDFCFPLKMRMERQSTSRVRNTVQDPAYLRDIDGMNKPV
Assay [12] deals with T3, Kappa-type opioid receptor. The assay is classed as functional. The source holds these as a separate data set.
Assay [13] has as its target T3, Kappa-type opioid receptor. As to the kind of experiment: SAR analysis of small molecule agonists of the kappa opioid receptor via a luminescent beta-arrestin assay. [Related pubchem assays (depositor defined):AID1777, AID1786, AID1966, AID2133, AID2136, AID2348, AID2352, AID2357, AID2359, AID2370, AID2420, AID2478, AID2491, AID2492, AID2493, AID2497, AID2498, AID2500, AID449737, AID488822, AID488842]. The assay is classed as functional.

In assay [14] the target is T2, Mu-type opioid receptor. The assay can be described thus: mu opioid receptor activators, image-based, SAR follow-up (AID 2352). In kind it is functional.
Assay [15] concerns the target T1, Delta-type opioid receptor. The assay can be described thus: DOR agonists, SAR follow-up, image-based (AID 2370). The assay is classed as functional.
Assay [16] concerns the target T3, Kappa-type opioid receptor. As to the kind of experiment: kappa opioid receptor blockers, image-based, SAR follow-up (AID 2348). In kind it is functional.
In assay [17] the target is T2, Mu-type opioid receptor. The assay can be described thus: mu opioid receptor blockers – image-based, SAR follow-up (AID 2420).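 Also: compounds added before stimulation of receptor with agonist DAMGO.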 The assay is classed as functional.
Assay [18] deals with T3, Kappa-type opioid receptor. The assay can be described thus: kappa opioid receptor activation potency – imaging, image-based, SAR follow-up (AID 2359). The assay is classed as functional.
The target of assay [19] is T1, Delta-type opioid receptor. The assay can be described thus: delta opioid receptor blockers – image-based, SAR follow-up (AID 2357). In kind it is functional.
A short description of assay [20]: luciferase reporter signal suppression in cells – H4 neuroglioma cells, luminescence, dose response (AID 1990). In kind it is functional, cell-based.
Assay [21] in a line: Luminescence Cell-Based Dose Response HTS to Identify Inhibitors of 5'UTR Stem-Loop Driven Prion Protein mRNA Translation in H4 Neuroglioblastoma Cells. [Related pubchem assays: 1827 (Project Summary), 1813 (Primary HTS)]. The assay is classed as functional.
Assay [22] in a line: alpha-synuclein stem-loop luciferase translation blockers – H4 neuroglioma cells, luminescence, confirmation (AID 1988). In kind it is functional, cell-based.
Assay [23] is described as follows: HEK-293T cell viability reduction – luminescence, B-cell screen hits, cytotoxicity control for BCR NF-kB inhibitor project, dose response (AID 489021).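 Also: HEK-293T cells carrying an NF-kB luciferase reporter; cells exposed to compound for about 14 hours before viability readout.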 In kind it is functional, cell-based.
Assay [24] has as its target Peroxisome proliferator-activated receptor gamma/Nuclear receptor coactivator 2 (Homo sapiens, UniProt P37231). The assay is classed as functional.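 Also: agonist potency for raising coactivator recruitment to the receptor.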
For assay [25], the target named is Peroxisome proliferator-activated receptor gamma/Nuclear receptor coactivator 1 (Homo sapiens, UniProt P37231). In kind it is functional.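 Also: agonist potency as compounds enhance coactivator SRC-1 recruitment to PPARgamma.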
The target in assay [26] is T4, RNA-binding protein pos-1 (Caenorhabditis elegans, UniProt G5EF15).
T4 sequence (G5EF15 whole entry): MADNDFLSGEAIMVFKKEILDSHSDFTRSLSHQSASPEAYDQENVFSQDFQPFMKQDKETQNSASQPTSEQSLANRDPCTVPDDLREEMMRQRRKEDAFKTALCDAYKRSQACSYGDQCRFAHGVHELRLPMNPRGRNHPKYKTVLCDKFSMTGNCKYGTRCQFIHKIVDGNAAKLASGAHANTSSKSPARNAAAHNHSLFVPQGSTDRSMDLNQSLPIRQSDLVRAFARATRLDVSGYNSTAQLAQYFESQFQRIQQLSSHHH
As to the kind of experiment: disruptors of C. elegans POS-1 RNA interaction – biochemical, fluorescence polarization, dose response (AID 1964).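 Also: purified POS-1 fused to maltose binding protein made in E. coli; potency of compounds blocking POS-1 binding to fluorescent RNA.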

The subject of assay [27] is Streptococcus sp. 'group A'. As to the kind of experiment: Streptococcus pyogenes SK(-)GAS viability under kanamycin – luminescence, BacTiterGlo, confirmation, counter-screen for streptokinase expression inhibitor project, dose response (AID 1900). In kind it is functional, organism-based.
Assay [28] has as its target Peroxisome proliferator-activated receptor gamma/Nuclear receptor coactivator 3 (Homo sapiens, UniProt P37231). In kind it is functional.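 Also: agonist potency for raising coactivator recruitment to the receptor.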
For assay [29], the target named is T5, Zinc finger protein mex-5 (Caenorhabditis elegans, UniProt Q9XUB2).
T5 sequence (Q9XUB2 whole entry): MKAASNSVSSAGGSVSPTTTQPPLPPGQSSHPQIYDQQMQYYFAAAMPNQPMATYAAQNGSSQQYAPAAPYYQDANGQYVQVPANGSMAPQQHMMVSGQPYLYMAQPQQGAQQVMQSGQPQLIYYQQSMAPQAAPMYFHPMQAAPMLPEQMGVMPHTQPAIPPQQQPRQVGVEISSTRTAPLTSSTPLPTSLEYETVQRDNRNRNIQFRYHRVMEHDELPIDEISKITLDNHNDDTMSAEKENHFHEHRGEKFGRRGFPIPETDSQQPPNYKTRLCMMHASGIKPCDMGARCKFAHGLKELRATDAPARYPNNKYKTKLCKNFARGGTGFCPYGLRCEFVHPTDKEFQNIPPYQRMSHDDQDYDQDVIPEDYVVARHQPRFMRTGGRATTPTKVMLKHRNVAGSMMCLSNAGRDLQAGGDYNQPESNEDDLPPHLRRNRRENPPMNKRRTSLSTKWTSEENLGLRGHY
As to the kind of experiment: potency of MEX-5 RNA-binding blockers – biochemical, C. elegans, fluorescence polarization, dose response (AID 1960).

In the next assay the target is T6, Streptokinase A (Streptococcus pyogenes serotype M1, UniProt P10520).
T6 sequence (P10520 whole entry): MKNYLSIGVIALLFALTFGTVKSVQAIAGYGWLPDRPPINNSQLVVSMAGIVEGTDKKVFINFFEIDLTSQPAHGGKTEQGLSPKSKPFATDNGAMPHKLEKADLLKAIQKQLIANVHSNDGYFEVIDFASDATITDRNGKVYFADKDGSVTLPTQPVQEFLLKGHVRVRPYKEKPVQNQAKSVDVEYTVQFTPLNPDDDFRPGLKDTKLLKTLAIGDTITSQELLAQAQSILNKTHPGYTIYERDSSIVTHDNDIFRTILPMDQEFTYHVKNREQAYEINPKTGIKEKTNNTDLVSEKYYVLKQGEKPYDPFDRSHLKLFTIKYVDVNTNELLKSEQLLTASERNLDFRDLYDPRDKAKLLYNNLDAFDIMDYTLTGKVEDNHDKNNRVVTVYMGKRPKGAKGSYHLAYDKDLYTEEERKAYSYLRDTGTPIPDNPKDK
As to the kind of experiment: viability-normalized secreted streptokinase activity reduction – plasminogen activation absorbance, OD405, dose response (AID 1914).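 Also: secreted streptokinase activity via plasminogen activation per viability signal from cell pellet.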 The assay is classed as functional, Streptococcus pyogenes M1 GAS.

A further assay has as its system Streptococcus. The assay can be described thus: GAS UMAA2166 growth inhibition – luminescence, BacTiterGlo, counter-screen for streptokinase expression inhibitor project, dose response (AID 1915).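 Also: potency for reduction of bacterial viability or growth.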 The assay is classed as functional, organism-based. In general terms: The purpose of a counterscreen is to sort out artefacts and off-target activity.
Assay [30] has as its target Scavenger receptor class B member 1 (Mus musculus, UniProt Q61009). The assay can be described thus: mouse SR-BI DiI-HDL uptake blockers – ldlA[mSR-BI] cells, fluorescence, cherry pick, dose response (AID 493194).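 Also: cellular uptake of fluorescent DiI-labeled HDL measured as cell fluorescence.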 In kind it is functional, cell-based.
The target in assay [31] is Acyl-homoserine lactone acylase PvdQ (Pseudomonas aeruginosa (strain LESB58), UniProt Q9I194). The assay can be described thus: PvdQ acylase enzyme activity blockers – biochemical, fluorescence, plate reader and imaging, cherry-picks, dose response (AID 493231).

Calls of active or inactive are those of the source. A value given as a limit tells only on which side of the number the result lay.

Sequence of Polyadenylate-binding protein 1 (P11940 whole entry): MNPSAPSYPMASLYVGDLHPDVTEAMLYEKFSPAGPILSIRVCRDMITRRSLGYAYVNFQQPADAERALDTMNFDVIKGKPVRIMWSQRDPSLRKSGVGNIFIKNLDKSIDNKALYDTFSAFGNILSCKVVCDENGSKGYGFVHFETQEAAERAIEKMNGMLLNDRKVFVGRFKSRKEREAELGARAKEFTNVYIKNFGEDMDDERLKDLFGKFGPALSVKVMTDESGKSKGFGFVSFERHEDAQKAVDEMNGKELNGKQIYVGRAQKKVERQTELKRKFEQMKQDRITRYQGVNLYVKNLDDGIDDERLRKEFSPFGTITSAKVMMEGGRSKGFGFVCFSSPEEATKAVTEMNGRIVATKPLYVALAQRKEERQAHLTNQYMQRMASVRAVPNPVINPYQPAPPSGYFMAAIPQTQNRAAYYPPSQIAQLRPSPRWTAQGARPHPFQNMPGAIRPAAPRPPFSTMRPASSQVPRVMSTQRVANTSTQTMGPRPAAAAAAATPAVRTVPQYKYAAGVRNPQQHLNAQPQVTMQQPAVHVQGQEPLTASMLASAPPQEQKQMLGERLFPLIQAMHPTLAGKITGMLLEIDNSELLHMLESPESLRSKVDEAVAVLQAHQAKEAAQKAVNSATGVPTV
Sequence of Scavenger receptor class B member 1 (Q61009 whole entry): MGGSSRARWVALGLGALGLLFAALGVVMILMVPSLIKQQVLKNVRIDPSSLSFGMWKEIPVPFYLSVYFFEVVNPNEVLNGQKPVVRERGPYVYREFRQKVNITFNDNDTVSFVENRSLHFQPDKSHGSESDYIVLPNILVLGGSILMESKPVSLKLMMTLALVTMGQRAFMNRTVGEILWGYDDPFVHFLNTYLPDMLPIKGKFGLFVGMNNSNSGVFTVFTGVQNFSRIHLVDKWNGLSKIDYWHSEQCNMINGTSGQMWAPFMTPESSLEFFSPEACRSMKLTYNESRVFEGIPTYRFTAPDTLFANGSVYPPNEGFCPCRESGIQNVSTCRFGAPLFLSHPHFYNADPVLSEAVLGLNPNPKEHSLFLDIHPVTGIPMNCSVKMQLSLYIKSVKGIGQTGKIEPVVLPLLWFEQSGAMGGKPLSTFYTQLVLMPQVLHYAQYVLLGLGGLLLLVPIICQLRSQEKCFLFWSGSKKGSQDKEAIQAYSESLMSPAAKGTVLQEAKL
Sequence of Peroxisome proliferator-activated receptor gamma/Nuclear receptor coactivator 2 (P37231 whole entry): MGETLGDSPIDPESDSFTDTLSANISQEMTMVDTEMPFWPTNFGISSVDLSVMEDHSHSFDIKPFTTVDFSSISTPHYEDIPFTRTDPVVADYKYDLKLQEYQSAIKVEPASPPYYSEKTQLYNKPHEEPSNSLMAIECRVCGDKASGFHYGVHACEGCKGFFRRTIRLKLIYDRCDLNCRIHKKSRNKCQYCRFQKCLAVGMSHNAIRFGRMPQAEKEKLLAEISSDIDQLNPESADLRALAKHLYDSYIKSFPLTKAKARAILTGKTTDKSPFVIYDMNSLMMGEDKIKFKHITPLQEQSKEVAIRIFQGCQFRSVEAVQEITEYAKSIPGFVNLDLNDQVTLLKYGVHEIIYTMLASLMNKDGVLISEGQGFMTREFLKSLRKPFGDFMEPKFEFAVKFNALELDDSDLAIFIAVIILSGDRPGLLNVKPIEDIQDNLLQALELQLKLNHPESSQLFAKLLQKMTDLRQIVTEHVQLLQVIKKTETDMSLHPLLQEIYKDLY
Sequence of Peroxisome proliferator-activated receptor gamma/Nuclear receptor coactivator 2 (Q15596 whole entry, further chain): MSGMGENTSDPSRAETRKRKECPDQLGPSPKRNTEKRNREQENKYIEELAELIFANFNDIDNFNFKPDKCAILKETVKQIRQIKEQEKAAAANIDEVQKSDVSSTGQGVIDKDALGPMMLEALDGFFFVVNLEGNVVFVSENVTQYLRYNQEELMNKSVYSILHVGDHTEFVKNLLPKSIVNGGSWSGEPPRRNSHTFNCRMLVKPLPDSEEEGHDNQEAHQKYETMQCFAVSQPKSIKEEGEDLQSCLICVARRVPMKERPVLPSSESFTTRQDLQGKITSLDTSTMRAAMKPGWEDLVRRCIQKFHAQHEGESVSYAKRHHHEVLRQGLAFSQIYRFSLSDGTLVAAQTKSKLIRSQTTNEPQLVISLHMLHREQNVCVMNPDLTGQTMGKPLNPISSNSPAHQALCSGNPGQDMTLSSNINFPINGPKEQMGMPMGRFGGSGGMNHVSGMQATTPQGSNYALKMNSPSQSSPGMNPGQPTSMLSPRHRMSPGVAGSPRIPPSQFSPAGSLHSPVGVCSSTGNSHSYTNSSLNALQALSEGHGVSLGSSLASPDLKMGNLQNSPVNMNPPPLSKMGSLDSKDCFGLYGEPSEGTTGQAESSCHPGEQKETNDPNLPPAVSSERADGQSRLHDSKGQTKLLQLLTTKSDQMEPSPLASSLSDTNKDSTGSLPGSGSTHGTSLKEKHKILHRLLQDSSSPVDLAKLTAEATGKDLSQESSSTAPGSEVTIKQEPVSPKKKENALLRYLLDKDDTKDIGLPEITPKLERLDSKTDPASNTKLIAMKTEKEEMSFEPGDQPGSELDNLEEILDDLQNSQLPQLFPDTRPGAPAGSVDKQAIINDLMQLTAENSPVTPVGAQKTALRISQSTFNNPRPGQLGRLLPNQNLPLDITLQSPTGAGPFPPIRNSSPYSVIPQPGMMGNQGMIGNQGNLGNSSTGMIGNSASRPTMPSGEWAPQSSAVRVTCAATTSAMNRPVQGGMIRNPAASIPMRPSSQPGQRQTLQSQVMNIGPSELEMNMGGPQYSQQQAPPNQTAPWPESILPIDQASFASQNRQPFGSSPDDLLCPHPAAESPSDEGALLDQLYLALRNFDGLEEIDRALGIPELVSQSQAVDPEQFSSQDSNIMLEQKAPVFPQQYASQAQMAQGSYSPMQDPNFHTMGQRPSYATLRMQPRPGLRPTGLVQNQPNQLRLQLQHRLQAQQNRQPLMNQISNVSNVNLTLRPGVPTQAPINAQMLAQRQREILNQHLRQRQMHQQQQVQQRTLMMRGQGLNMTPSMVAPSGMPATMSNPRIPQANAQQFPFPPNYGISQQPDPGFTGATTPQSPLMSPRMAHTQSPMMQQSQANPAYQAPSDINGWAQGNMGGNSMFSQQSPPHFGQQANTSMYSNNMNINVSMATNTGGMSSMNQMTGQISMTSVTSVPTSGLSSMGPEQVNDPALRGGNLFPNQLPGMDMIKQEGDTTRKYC

Usually IC50 stands for the concentration that inhibits the measured activity by half. For orientation: EC50 means the concentration giving half of the maximal effect. With `C/C=C/COC(=O)c1[nH]c2c(c1C)C(=O)CC(c1ccco1)C2` (stereo not given), the IC50 was 21.7 µM (active) in [1]; 24.7 µM (active) at Estrogen receptor; > 50 µM (not active) at Estrogen receptor beta; 45.8 µM (active) in assay [6]; > 80 µM (inactive) in assay [7]. For the same compound, the EC50 in the assay with BJ [2] was 2.84 µM (inconclusive); in the assay with BJ [3] it was 2.76 µM (active); in the assay with BJ [4], 4.74 µM (inconclusive); in assay [5] it was 2.76 µM (active).
As to `COc1ccc(CN(CC2CCCO2)C(=O)CN2C(=O)COc3ccccc32)cc1OC` (stereo not given), the IC50 (in [8]; in assay [16]; on Mu-type opioid receptor [17]; in [19]) was > 32 µM (inactive) throughout. For the same compound, the EC50 at Mu-type opioid receptor [9] is > 32 µM (inactive); in [10] it was > 32 µM (inactive); in [11] it was 11.5 µM; in assay [12], 11 µM; in assay [13], > 10 µM (inactive); at Mu-type opioid receptor [14] it was > 32 µM (inactive). Further, the values for the EC50 in [15] and in assay [18] were > 32 µM (inactive) and 4.88 µM (active), respectively.
As to `Cc1ccc(C(=O)NNC(=O)CCCN2C(=O)/C(=C/c3ccccc3Cl)SC2=S)cc1`, the values for the EC50 in [20], in assay [21] and in assay [22] were 10.8 µM (active), > 120 µM (not active) and 14 µM (active), respectively. Besides, in [23], the IC50 was > 80 µM (inactive).
As usually defined, the AC50 is the concentration giving half of the maximal activity seen. Take `Cc1cc(C)c2c(c1)NC(c1cc3c(cc1Br)OCO3)C1CC=CC21` (stereo not given): the EC50 in assay [24] was > 79.4 µM (not active); in assay [25], > 79.4 µM (not active); in assay [26], > 300 µM (not active); in assay [27] it was 5.11 µM (active); in assay [28], > 79.4 µM (not active); in [29], > 300 µM (not active). Further, the EC50 was > 150 µM (not active) at Streptokinase A and 114 µM (active) in the assay on Streptococcus. In [30], the AC50 was 19 µM (active).
For `O=[N+]([O-])c1ccc(Sc2ccccc2Cl)nc1`, the AC50 in assay [31] is 33.2 µM (active).

For the origin of these results see ChEMBL document CHEMBL1201862, “PubChem BioAssay data set” (2004).
